Measured values: PMC11213865, “Mechanisms contributing to inhibition of retinal ganglion cell death by cell permeable peptain-1 under glaucomatous stress” (Cell Death Discovery, 2024)
No end group written: not given here.

Tests used:
[1] = tested on: RGC; conditions: accumulates within RGC somas in a time-dependent manner; cited from earlier work
[2] = tested on: Human retinal endothelial cells; test: Cell penetration and retention, western blot with anti-P1 monoclonal antibody; assay type: in vitro ADME; conditions: 16 h; for intracellular concentration (level of P1 in cells, densitometry relative to β-actin): cell uptake, 100 µM peptide, serum-free DMEM/F12 (low glucose), cell lysate, western blot with anti-P1 monoclonal antibody, mean ± SEM, n = 3
Protocol: Fig. 1 Conjugation with CPP increases the cell permeability of P1. A Human retinal endothelial cells were treated with vehicle (CONT), P1 or CPP-P1 (100 µM). Following incubation for 16 h, the levels of P1 in cells were detected by western blotting using an anti-P1 monoclonal antibody. Densitometric analysis was performed relative to β-actin levels (n = 3). Data represented as mean ± SEM, One-way ANOVA followed by Tukey’s multiple comparisons test, ***p < 0.001, ns-not significant. The entire western blot image is shown in Supplementary Figure 1. B Human retinal explants comparing the difference in neuroprotective efficacy of P1 with and without the CPP. C Representative images, RBPMS, Scale bar = 100 µm.
Human retinal endothelial cells were incubated with vehicle, P1, or CPP-P1 (100 µM) in serum-free DMEM/F12 (low glucose) medium for 16 h. Cells were treated with 1X RIPA buffer containing protease inhibitor cocktail and cell lysates were prepared. Western blot was performed using an anti-P1 monoclonal antibody with β-actin as the loading control (n = 3).

| intracellular concentration (level of P1 in cells, densitometry relative to β-actin) [2] | cell permeability of CPP-P1 relative to P1 ([2]; 100 µM, human retinal endothelial cells, western blot) | Sequence | RGC permeability [1] |
| --- | --- | --- | --- |
| 0.23 ± 0.01 |  | DRFSVNLDVKHFSPEELKVK [P1] | RGC-permeable |
| 1.41 ± 0.17 | approximately seven | VPTLKDRFSVNLDVKHFSPEELKVK [CPP-P1] |  |
